Laboratory results taken from patent US11673884B2, “Matrix metalloproteinase (MMP) inhibitors and methods of use thereof” (Foresee Pharmaceuticals Co., Ltd., priority 2019, dated 2023).
pIC50: −log10 of the molar value. Read-outs that look alike come from different tables or passages of the source.

Tests used:
Type in all cases: biochemical
[1] = molecular target: recombinant human MMP-12 catalytic domain (Homo sapiens (Human), UniProt P39900); assay: MMP-12 inhibitory assay, fluorogenic substrate cleavage
Procedure: (§1) The inhibitory effect of compounds on the rate of cleaving fluorogenic MMP substrate (Enzo, BML-P128) by recombinant human MMP-12 catalytic domain (Enzo, BML-SE138) was carried out by methods known in the art. Briefly, to each well of a 96-well black opaque plate, all the reagents were sequentially added by pipetting, and the final reaction contained 4 nM of recombinant human MMP-12 catalytic domain, 4 μM of fluorogenic MMP substrate, and various concentrations (0.057 nM to 1,000 nM) of tested compound dilutions in HEPES buffer (pH 7.5) containing 10 mM of CaCl2, 0.01% Brij® 35 (polyoxyethylene (23) lauryl ether), and 0.1 mg/ml of BSA.
(§2) The enzyme and compounds were pre-incubated on a shaker to mix in wells. After an hour of mixing, fluorogenic substrate was added to each well. Reaction without enzyme was used as a blank control in the plate. The plate was then fed into a plate reader to measure fluorescence intensity at Excitation/Emission wavelengths of 340 nm/440 nm every 10 mins for at least 1 hour at 37° C. The IC50 of each compound in MMP-12 inhibition was determined by using a readout obtained at time point 30 minutes.

recombinant human MMP-1 = recombinant human MMP-1 (Homo sapiens (Human), UniProt P03956); assay: MMP selectivity assay, MMP-1; details: Table 2 selectivity profile; read-out: IC50, Target: MMP 1
Procedure: as §1, §2
(§3) The MMP selectivity assay was performed by using other recombinant human MMPs, including MMP-1, MMP-2, MMP-3, MMP-7, MMP-8, MMP-9, MMP-10, MMP-12, MMP-13, and MMP-14. The IC50 of the compounds for the other recombinant human MMPs was determined as described above in Example 1, and are shown in Table 2. The IC50 values are reported as follows: A=less than 1 nM, B=1 nM to 10 nM, C=10 nM to 100 nM, D=greater than 100 nM.

recombinant human MMP-2 = recombinant human MMP-2 (Homo sapiens (Human), UniProt P08253); assay: MMP selectivity assay, MMP-2; details: Table 2 selectivity profile; read-out: IC50, Target: MMP 2
Procedure: as §1, §2, §3

recombinant human MMP-3 = recombinant human MMP-3 (Homo sapiens (Human), UniProt P08254); assay: MMP selectivity assay, MMP-3; details: Table 2 selectivity profile; read-out: IC50, Target: MMP 3
Procedure: as §1, §2, §3

recombinant human MMP-7 = recombinant human MMP-7 (Homo sapiens (Human), UniProt P09237); assay: MMP selectivity assay, MMP-7; details: Table 2 selectivity profile; read-out: IC50, Target: MMP 7
Procedure: as §1, §2, §3

recombinant human MMP-8 = recombinant human MMP-8 (Homo sapiens (Human), UniProt P22894); assay: MMP selectivity assay, MMP-8; details: Table 2 selectivity profile; read-out: IC50, Target: MMP 8
Procedure: as §1, §2, §3

recombinant human MMP-9 = recombinant human MMP-9 (Homo sapiens (Human), UniProt P14780); assay: MMP selectivity assay, MMP-9; details: Table 2 selectivity profile; read-out: IC50, Target: MMP 9
Procedure: as §1, §2, §3

recombinant human MMP-10 = recombinant human MMP-10 (Homo sapiens (Human), UniProt P09238); assay: MMP selectivity assay, MMP-10; details: Table 2 selectivity profile; read-out: IC50, Target: MMP 10
Procedure: as §1, §2, §3

recombinant human MMP-13 = recombinant human MMP-13 (Homo sapiens (Human), UniProt P45452); assay: MMP selectivity assay, MMP-13; details: Table 2 selectivity profile; read-out: IC50, Target: MMP 13
Procedure: as §1, §2, §3

recombinant human MMP-14 = recombinant human MMP-14 (Homo sapiens (Human), UniProt P50281); assay: MMP selectivity assay, MMP-14; details: Table 2 selectivity profile; read-out: IC50, Target: MMP 14
Procedure: as §1, §2, §3

[2] = Table 1, readout at time point 30 minutes, read-out: MMP-12 IC50
[3] = Table 2 selectivity profile, read-out: IC50, Target: MMP 12

Chain of recombinant human MMP-9 (P14780 94-707): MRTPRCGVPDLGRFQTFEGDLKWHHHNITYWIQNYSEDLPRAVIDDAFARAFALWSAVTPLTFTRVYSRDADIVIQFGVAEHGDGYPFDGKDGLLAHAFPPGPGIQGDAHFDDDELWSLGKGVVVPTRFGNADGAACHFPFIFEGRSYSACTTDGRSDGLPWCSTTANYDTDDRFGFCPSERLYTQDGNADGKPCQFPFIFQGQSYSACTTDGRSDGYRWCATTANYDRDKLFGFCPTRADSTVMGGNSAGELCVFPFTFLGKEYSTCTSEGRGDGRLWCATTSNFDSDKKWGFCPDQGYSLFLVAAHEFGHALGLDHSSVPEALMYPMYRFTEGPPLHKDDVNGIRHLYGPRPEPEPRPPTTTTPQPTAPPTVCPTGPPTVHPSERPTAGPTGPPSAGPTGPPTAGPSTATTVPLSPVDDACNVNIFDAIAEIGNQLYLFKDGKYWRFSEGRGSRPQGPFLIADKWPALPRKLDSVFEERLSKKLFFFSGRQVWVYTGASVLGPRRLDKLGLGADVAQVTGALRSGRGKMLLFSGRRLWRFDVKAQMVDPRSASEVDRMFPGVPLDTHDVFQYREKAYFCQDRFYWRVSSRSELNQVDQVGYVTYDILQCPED
Chain of recombinant human MMP-7 (P09237 95-267): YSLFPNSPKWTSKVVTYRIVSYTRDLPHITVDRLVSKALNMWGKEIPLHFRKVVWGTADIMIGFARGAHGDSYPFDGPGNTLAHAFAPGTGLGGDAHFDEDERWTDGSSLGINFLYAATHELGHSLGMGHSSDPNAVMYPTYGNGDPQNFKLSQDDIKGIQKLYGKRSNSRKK
Chain of recombinant human MMP-8 (P22894 101-467): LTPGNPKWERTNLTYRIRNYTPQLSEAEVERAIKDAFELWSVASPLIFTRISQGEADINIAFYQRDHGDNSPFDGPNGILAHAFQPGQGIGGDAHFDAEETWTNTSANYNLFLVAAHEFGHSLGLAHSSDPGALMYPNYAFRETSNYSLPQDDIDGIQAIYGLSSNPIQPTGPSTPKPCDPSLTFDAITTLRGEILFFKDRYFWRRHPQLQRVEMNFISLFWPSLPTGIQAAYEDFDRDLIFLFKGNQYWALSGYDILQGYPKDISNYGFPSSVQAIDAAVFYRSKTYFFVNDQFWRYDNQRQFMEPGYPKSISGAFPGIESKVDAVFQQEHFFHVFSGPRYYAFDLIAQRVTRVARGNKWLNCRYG
Chain of recombinant human MMP-12 catalytic domain (P39900 106-268): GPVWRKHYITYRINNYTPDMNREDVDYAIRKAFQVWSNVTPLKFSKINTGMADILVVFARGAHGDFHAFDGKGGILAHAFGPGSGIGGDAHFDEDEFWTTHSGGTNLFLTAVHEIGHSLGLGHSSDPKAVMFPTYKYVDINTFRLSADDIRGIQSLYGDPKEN
Chain of recombinant human MMP-10 (P09238 99-476): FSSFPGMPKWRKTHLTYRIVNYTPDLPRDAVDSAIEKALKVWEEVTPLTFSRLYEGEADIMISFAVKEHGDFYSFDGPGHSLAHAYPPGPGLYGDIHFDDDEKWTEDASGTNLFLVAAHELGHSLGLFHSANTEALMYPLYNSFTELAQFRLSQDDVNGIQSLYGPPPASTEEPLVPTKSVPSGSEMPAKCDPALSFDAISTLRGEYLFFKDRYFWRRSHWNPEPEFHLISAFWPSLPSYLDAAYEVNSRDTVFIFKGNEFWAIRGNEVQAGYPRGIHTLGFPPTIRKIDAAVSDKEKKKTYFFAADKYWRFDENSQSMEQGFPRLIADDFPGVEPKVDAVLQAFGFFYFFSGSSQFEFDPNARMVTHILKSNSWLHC
Chain of recombinant human MMP-1 (P03956 100-469): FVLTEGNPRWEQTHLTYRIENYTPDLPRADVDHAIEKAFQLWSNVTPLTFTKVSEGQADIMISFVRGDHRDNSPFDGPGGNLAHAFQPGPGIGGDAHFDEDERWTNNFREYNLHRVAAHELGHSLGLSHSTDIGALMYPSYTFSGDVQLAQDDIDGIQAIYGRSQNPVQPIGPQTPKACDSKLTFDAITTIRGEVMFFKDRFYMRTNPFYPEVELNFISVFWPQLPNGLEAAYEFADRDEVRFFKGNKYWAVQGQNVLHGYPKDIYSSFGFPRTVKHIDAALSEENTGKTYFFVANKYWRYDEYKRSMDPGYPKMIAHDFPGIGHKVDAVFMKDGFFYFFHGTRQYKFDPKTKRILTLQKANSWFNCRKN
Chain of recombinant human MMP-2 (P08253 110-660): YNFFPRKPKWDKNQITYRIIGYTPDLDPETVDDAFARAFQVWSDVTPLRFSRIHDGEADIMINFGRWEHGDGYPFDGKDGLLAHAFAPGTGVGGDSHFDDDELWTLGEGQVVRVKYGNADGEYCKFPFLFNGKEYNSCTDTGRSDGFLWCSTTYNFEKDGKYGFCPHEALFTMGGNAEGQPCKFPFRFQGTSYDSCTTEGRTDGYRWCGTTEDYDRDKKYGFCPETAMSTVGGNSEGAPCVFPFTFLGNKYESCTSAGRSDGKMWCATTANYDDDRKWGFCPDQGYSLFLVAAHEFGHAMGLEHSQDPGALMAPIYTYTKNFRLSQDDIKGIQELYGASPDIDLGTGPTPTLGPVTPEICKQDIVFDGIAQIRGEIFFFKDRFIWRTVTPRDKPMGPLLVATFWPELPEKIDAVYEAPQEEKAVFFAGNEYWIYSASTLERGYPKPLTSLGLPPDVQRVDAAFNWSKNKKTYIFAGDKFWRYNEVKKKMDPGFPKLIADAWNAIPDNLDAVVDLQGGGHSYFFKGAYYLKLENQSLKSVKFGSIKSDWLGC
Chain of recombinant human MMP-3 (P08254 100-477): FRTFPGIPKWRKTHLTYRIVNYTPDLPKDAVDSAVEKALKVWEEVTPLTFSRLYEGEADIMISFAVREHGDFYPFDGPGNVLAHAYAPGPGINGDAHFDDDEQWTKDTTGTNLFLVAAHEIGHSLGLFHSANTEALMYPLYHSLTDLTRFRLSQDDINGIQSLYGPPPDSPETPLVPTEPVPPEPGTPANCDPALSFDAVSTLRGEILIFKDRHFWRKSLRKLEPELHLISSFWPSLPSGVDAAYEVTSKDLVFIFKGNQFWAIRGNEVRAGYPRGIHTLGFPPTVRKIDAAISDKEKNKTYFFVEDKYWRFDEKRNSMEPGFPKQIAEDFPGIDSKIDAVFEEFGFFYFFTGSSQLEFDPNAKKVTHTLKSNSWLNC

| pIC50 [1, 2] | pIC50 [1, 3] | pIC50 (recombinant human MMP-1) | pIC50 (recombinant human MMP-2) | pIC50 (recombinant human MMP-3) | pIC50 (recombinant human MMP-7) | pIC50 (recombinant human MMP-8) | pIC50 (recombinant human MMP-9) | pIC50 (recombinant human MMP-10) | pIC50 (recombinant human MMP-13) | pIC50 (recombinant human MMP-14) | SMILES |
| --- | --- | --- | --- | --- | --- | --- | --- | --- | --- | --- | --- |
| > 9.00 | > 9.00 | < 7.00 | 8.00 to 9.00 | 7.00 to 8.00 | < 7.00 | 7.00 to 8.00 | 7.00 to 8.00 | < 7.00 | 7.00 to 8.00 | < 7.00 | Cc1cc(/C=C/c2ccc(Sc3ccoc3C3NC(=O)NC3=O)cc2)ccn1 (centres unmarked) [AC-2] |
| > 9.00 | > 9.00 | < 7.00 | 7.00 to 8.00 | < 7.00 | < 7.00 | 7.00 to 8.00 | < 7.00 | < 7.00 | < 7.00 | < 7.00 | Cc1cc(/C=C/c2ccc(Oc3ccncc3C3NC(=O)NC3=O)cc2)ccn1 (centres unmarked) [AC-6] |
| > 9.00 | > 9.00 | < 7.00 | 7.00 to 8.00 | < 7.00 | < 7.00 | < 7.00 | < 7.00 | < 7.00 | < 7.00 | < 7.00 | Cc1cc(/C=C/c2ccc(Sc3ccncc3C3NC(=O)NC3=O)cc2)ccn1 (centres unmarked) [AC-5] |
| 8.00 to 9.00 | 8.00 to 9.00 | < 7.00 | < 7.00 | < 7.00 | < 7.00 | < 7.00 | < 7.00 | < 7.00 | < 7.00 | < 7.00 | Cc1cc(C#Cc2ccc(Sc3ccncc3C3NC(=O)NC3=O)cc2)ccn1 (centres unmarked) [AC-4] |
| > 9.00 | > 9.00 | < 7.00 | 8.00 to 9.00 | 7.00 to 8.00 | < 7.00 | 8.00 to 9.00 | 7.00 to 8.00 | < 7.00 | 8.00 to 9.00 | < 7.00 | Cc1cc(/C=C/c2ccc(Sc3ccsc3C3NC(=O)NC3=O)cc2)ccn1 (centres unmarked) [AC-10] |
| > 9.00 | > 9.00 | < 7.00 | 7.00 to 8.00 | < 7.00 | < 7.00 | 7.00 to 8.00 | < 7.00 | < 7.00 | < 7.00 | < 7.00 | Cc1cc(C#Cc2ccc(Sc3cnn(C)c3C3NC(=O)NC3=O)cc2)ccn1 (centres unmarked) [AC-11] |
| > 9.00 | – | – | – | – | – | – | – | – | – | – | CCC1(c2cnccc2Sc2ccc(/C=C/c3ccnc(C)c3)cc2)NC(=O)NC1=O (centres unmarked) [AC-8] |
| > 9.00 | > 9.00 | < 7.00 | 8.00 to 9.00 | 7.00 to 8.00 | < 7.00 | 8.00 to 9.00 | 7.00 to 8.00 | 7.00 to 8.00 | 7.00 to 8.00 | < 7.00 | CCC1(c2occc2Sc2ccc(/C=C/c3ccnc(C)c3)cc2)NC(=O)NC1=O (centres unmarked) [AC-3] |
| > 9.00 | > 9.00 | < 7.00 | 7.00 to 8.00 | < 7.00 | < 7.00 | 7.00 to 8.00 | < 7.00 | < 7.00 | < 7.00 | < 7.00 | Cc1cc(C#Cc2ccc(Sc3ccsc3C3NC(=O)NC3=O)cc2)ccn1 (centres unmarked) [AC-9] |
| > 9.00 | > 9.00 | < 7.00 | 8.00 to 9.00 | < 7.00 | < 7.00 | 7.00 to 8.00 | < 7.00 | < 7.00 | 7.00 to 8.00 | < 7.00 | Cc1cc(/C=C/c2ccc(Sc3cnn(C)c3C3NC(=O)NC3=O)cc2)ccn1 (centres unmarked) [AC-12] |
| 7.00 to 8.00 | 7.00 to 8.00 | < 7.00 | < 7.00 | < 7.00 | < 7.00 | < 7.00 | < 7.00 | < 7.00 | < 7.00 | < 7.00 | Cc1cc(C#Cc2ccc(Sc3ccoc3C3NC(=O)NC3=O)cc2)ccn1 (centres unmarked) [AC-1] |
| 8.00 to 9.00 | 8.00 to 9.00 | < 7.00 | < 7.00 | < 7.00 | < 7.00 | < 7.00 | < 7.00 | < 7.00 | < 7.00 | < 7.00 | Cc1cc(C#Cc2ccc(Oc3ccncc3C3NC(=O)NC3=O)cc2)ccn1 (centres unmarked) [AC-7] |
